Experimental data taken from patent US20230203523A1, “HPPD INHIBITOR HERBICIDE TOLERANT PLANT” (priority 2021, published 2023).

Key:
Type in all cases: in vivo, Sorghum bicolor
[1] = test system: M3 sorghum plants of furrow VT09-8800 (BV94-4045EMS1-256-2, ADV-HT2); assay: Herbicide spray selection of EMS-mutagenised M3 sorghum progeny; settings: sprayed with 33.6 ml active ingredient/ha; six M3 plants of furrow VT09-8800
Description: In order to obtain herbicide-tolerant plants, endogamic sorghum (Sorghum bicolor) line BV94-4045 (Advanta proprietary elite line) seeds were treated with an aqueous solution of ethyl methanesulfonate (EMS). Treated seeds were planted and self-pollinated for advancing generation. Eight hundred nighty five M1 plants were selected, and two seeds of each plant were planted in a nursery, thereby obtaining a total of 1790 M2 plants. Pollen from both plants of each pair were collected, and the bulk was used for pollinating both plants of the pair. A bulk of M3 seeds from each pair was obtained from the 895 pollinated M2 pairs of plants. A total of 895 furrows were planted with the M3 progeny. Fifty plants from each M3 furrow were sprayed with 33.6 ml active ingredient /ha of topramezone. […] The genealogy of the resistant plants from the furrows was identified and they were designated BV94-4045EMS1-256-2 (hereinafter referred to as ADV-HT2). Herbicide tolerant M7 mutant plants and seeds selected from the original ADV-HT2 mutant, designated as: Material ID=VT10-11924-1-BK and Inbred Code=BV10-11924, were obtained and deposited with the NCIMB collection with Access No. NCIMB 43919 under the terms of the Budapest Treaty,
Thirty-two thousand pre-germinated sorghum seeds from endogamic line BV94-4045 were dipped into an aqueous solution of 0.05% v/v ethyl methanesulfonate (EMS) for 16 hours. […]

[2] = test system: grain sorghum genotype BV94-4045 (susceptible wild type); assay: Field phytotoxicity trial, aerial biomass as % of untreated control, wild type sorghum; settings: BV94-4045 wild type; for Biomass % Control: field; for phytotoxicity / biomass accumulation (in words): POE, 20 days after herbicide application, 4×
Description: (§1) To determine the spectrum of tolerance to different HPPD herbicide site of action (SOA) active ingredients (AI) in a sorghum HPPD tolerant inbred BV10-11924 (ADV-HT2) following methodology was used.
(§2) Two grain sorghum genotypes were evaluated under field conditions with herbicide pre-emergency (PRE) and post-emergency (POE) treatments of 6 active ingredients of HPPD SOA herbicide families for sorghum crop phytotoxicity trials.
(§3) The experiment design was a split-plot design with 2 replicates where: Herbicide treatment was defined as Main plot, and Genotype as split plot. Plot size were 10 square meters each, this is 4 row/plot, 5 meters length and 0.52 meters between rows.
(§4) Both genotypes (Table 1) were sown in the Advanta R&D Station in Venado Tuerto, Argentina using an experimental planter. Wild type BV94-4045 (line used for mutagenesis in example 1) is a maintainer elite inbred line Advanta's proprietary.
(§5) All herbicide treatments (Table 2) were applied same day of sowing date for herbicide PRE treatments, and 15 days after sowing for POE treatments using an experimental sprayer in optimal weather conditions. The herbicides rates were defined as: 1×, 2× and 4×. Along with the herbicides, there were applied specific surfactant when they were recommended by the supplier for each herbicide. In all cases, 1× rate was defined based on the recommended dose in herbicide label. […]
(§6) For Aerial Biomass (Biomass) measurements, all plants from two central rows each plot were harvested by cutting them at ground level and weighted before and after drying at 60° C. for 48 h in order to determine the shoot dry mass reduction of each treatment. All data were standardized using the Aerial Biomass average as the % of Control plots. For the calculation as the percentage of its respective untreated control was used the following function:
(§7) Biomass % Control=(Biomassgh/Biomassg Control)*100
(§8) where “Biomass % Control” is the Aerial Biomass expressed as percent of each genotype in the Control plot without any herbicide application (Table 3); “Biomassgh” is the Aerial Biomass is the mean for each genotype*herbicide treatment combination and “Biomassg Control” is the Aerial Biomass mean for each genotype in the treatment CONTROL (untreated).

[3] = test system: grain sorghum genotype BV10-11924 (mutant ADV-HT2); assay: Field phytotoxicity trial, aerial biomass as % of untreated control, mutant ADV-HT2 sorghum; settings: for Biomass % Control: field
Description: as §1, §2, §3, §4, §5, §6, §7, §8

[4] = POE application (15 days after sowing), 1X = label recommended rate
[5] = POE, 20 days after herbicide application, rates 1×, 2×, and 4×
[6] = PRE application (day of sowing), 1X = label recommended rate
[7] = PRE, 1× rate, 20 days after the application

Row | SMILES | plant growth and symptoms after treatment with herbicide (in words) [1] | Biomass % Control [2, 4] | Biomass % Control ([2]; POE application, 2X label rate) | Biomass % Control ([2]; POE application, 4X label rate) | phytotoxicity / biomass accumulation (in words) ([2]; rates 1×, 2×) | Biomass % Control [3, 4] | Biomass % Control ([3]; POE application, 2X label rate) | Biomass % Control ([3]; POE application, 4X label rate) | phytotoxicity / biomass accumulation (in words) [3, 5] | Biomass % Control [2, 6] | Biomass % Control ([2]; PRE application, 2X label rate) | Biomass % Control ([2]; PRE application, 4X label rate) | Biomass % Control [3, 6] | Biomass % Control ([3]; PRE application, 2X label rate) | Biomass % Control ([3]; PRE application, 4X label rate) | phytotoxicity / biomass accumulation (in words) [3, 7] | phytotoxicity / biomass accumulation (in words) ([2]; rates 2×)
1 | Cc1c(C(=O)c2cnn(C)c2O)ccc(S(C)(=O)=O)c1C1=NOCC1 [TOP, TOPRAMEZONE] | normal growth and absence of symptoms | 77% | 51% | 39% | significant reduction in the biomass accumulation | 126% | 107% | 117% | tolerant without phytotoxicity nor reduction in the biomass accumulation |  |  |  |  |  |  |  | 
2 | CCn1ncc(C(=O)c2ccc(S(C)(=O)=O)c(OCCOC)c2C)c1OC(C)OC(=O)OC (stereo not drawn) [TOL, TOLPYRALATE] |  | 76% | 60% | 64% | significant reduction in the biomass accumulation | 117% | 92% | 127% | tolerant without phytotoxicity nor reduction in the biomass accumulation |  |  |  |  |  |  |  | 
3 | COCCOCc1nc(C(F)(F)F)ccc1C(=O)C1=C(O)C2CCC(C2)C1=O (stereo not drawn) [BYC, BICYCLOPIRONA] |  |  |  |  |  |  |  |  |  | 65% | 10% | 1% | 127% | 46% | 15% | no significative reduction in biomass accumulation | 
4 | CS(=O)(=O)c1cc(C(F)(F)F)ccc1C(=O)c1cnoc1C1CC1 [ISO, ISOXAFLUTOLE] |  |  |  |  |  |  |  |  |  | 63% | 28% | 10% | 84% | 68% | 38% | no significative reduction in biomass accumulation | 
5 | CS(=O)(=O)c1ccc(C(=O)C2C(=O)CCCC2=O)c([N+](=O)[O-])c1 [MES, MESOTRIONE] |  | 108% | 32% | 13% |  | 146% | 106% | 84% | tolerant without phytotoxicity nor reduction in the biomass accumulation |  |  |  |  |  |  |  | significant reduction in the biomass accumulation
